Test results reported in patent publication US20260191861A1, “INFLAMMASOME AND VEGF INHIBITION FOR RETINAL VASCULAR DISEASES” (University of Virginia Patent Foundation, priority 2022, published 2026).
“Also recorded” adds a separate entry of the source.

What was measured:
caspase-1 = experiment: Rhegmatogenous retinal detachment (RRD) model: retinal caspase-1 cleavage by immunoblot; type: in vivo, mouse
Method: (§1) All experiments involving animals were approved by the University of Virginia Institutional Animal Care and Use Committee (IACUC) and adhered to the Association for Research in Vision and Ophthalmology (ARVO) Statement for the Use of Animals in Ophthalmic and Vision Research. Animal subjects were male and female mice aged 6 to 10 weeks. Wild type C57BL/6J mice were obtained from the Jackson Laboratory (Bar Harbor, ME, USA). To anesthetize mice for study procedures, ketamine hydrochloride (100 mg/kg; Ft. Dodge Animal Health, Overland Park, KS, USA) and xylazine (10 mg/kg; Phoenix Scientific, St. Joseph, MO, USA) were delivered by intraperitoneal (IP) injection. Pupils were dilated with topical 1% tropicamide and 2.5% phenylephrine (Alcon Laboratories, Ft. Worth, TX, USA).
(§2) RRD model was established by subretinal injection (SRI) of 3 μl 1% carboxymethyl cellulose (CMC; Refresh Liquigel, Allergan, Irvine, CA, USA).
(§3) NRTIs and K-9 were delivered via intraperitoneal (IP) injection in equimolar amounts. […] Kamuvudine K-9 (3-methyl-3TC, MW=273 g/mol) was administered either at a low dose (K-9L; 90 mg/kg daily) or a high dose (K-9H; 60 mg/kg twice daily, equimolar to NRTI doses). IP injection of phosphate buffered saline (PBS) was used as control.
Retinal tissue was extracted and lysed by sonication in radioimmunoprecipitation assay (RIPA) buffer (MilliporeSigma, Darmstadt, Germany). The Pierce BCA Protein Assay Kit (ThermoFisher Scientific, Waltham, MA, USA) was used to determine protein concentrations of interest. Samples were prepared that contained equal concentrations of total protein (10-100 μg). Protein samples were resolved by SDS-PAGE and transferred onto Immobilon-FL PVDF membranes (Millipore, Billerica, MA, USA). Membranes were blocked in Odyssey Blocking Buffer (PBS) for 1 hour at room temperature, and then incubated overnight with primary antibody at 4° C. Across study experiments, the following antibodies were used: anti-mouse caspase-1 (1:1000; AG-20B-0042; AdipoGen Life Sciences, San Diego, CA, USA), and anti-mouse GAPDH (1:1000; 2118; Cell Signaling, Danvers, MA, USA). […]

[1] = test system: photoreceptors (TUNEL+ cells in the ONL); experiment: RRD model: TUNEL assay of the retinal outer nuclear layer; type: in vivo, mouse
Method: as §1, §2, §3
Retinal cross cryosections at a thickness of 10 μm were stained with TUNEL (TdT-mediated dUTP nick-end labeling) using the In Situ Cell Death Detection Kit (Roche Diagnostics, Indianapolis, IN, USA) according to the manufacturer's′ instructions. The sections were wet-mounted with ProLong anti-fade reagent with DAPI (P36935, ThermoFisher Scientific, Waltham, MA, USA) and visualized using an A1R laser confocal microscope (Nikon, Tokyo, Japan). Fourteen representative sections, including the optic nerve, were used per treatment group. To calculate the number of TUNEL+ cells in the outer nuclear layer (ONL), the retina analysis toolkit of ImageJ (2.1.0; NIH, Bethesda, MD, USA) was used.

[2] = test system: participants with diabetic macular edema; experiment: Visual acuity (VALS) compared with synthetic controls from the DRCR.net Protocol T study (IPTW, propensity score matching, GEE); type: in vivo, human
From the text: The second analysis included participants from the lamivudine versus placebo trial, along with a synthetic comparator created using data from the DRCR.net Protocol T study. The source of the data is DRCR.net (2018) A Comparative Effectiveness Study of Intravitreal Aflibercept, Bevacizumab and Ranibizumab for Diabetic Macular Edema, retrieved from https://public.jaeb.org/drcrnet/stdy/download/206. The analyses, content, and conclusions presented herein are solely the responsibility of the authors and have not been reviewed or approved by DRCR.net.
Inclusion criteria for participants from the DRCR.net Protocol T study were based on their similarity to the lamivudine versus placebo trial design. This involved selecting only patients with type 2 diabetes, study eyes with a baseline VALS<69, and complete follow-up visual acuity measurements at weeks 4 and 8.
(§4) Propensity score methods were used to select DRCR.net Protocol T study participants similar to lamivudine-treated patients. Inverse probability treatment weights (IPTW) and propensity score matching were used. To estimate the IPTW weights, a multinomial logistic regression was used to estimate propensity scores using important predictors including baseline visual acuity and baseline central subfield thickness along with age, gender, and duration of diabetes. Weights were calculated as the reciprocal of the estimated propensity score of the actual treatment received. Weights were then truncated at the 99th percentile. For the propensity score matched analysis, lamivudine-treated patients were matched to each DRCR.net Protocol T treatment arm (aflibercept, bevacizumab, ranibizumab) and placebo group, separately. Due to the limited sample size for matching within each group, propensity score models included the most important predictors of acuity change including baseline visual acuity, age and duration of diabetes.
(§5) For the IPTW analysis, a mixed-effects weighted model was fit with subject-specific random effects. […] The model's estimates, confidence intervals (CI), and P values were reported for each predictor. Additionally, model-based contrasts were conducted to compare the change in VALS from baseline between lamivudine and the Protocol T treatments.
For each propensity score matched group (e.g., lamivudine-bevacizumab, lamivudine-aflibercept), a mixed effect model was fit estimating the change in visual acuity from baseline. Subject specific random effect was included along with fixed effect predictors: treatment group, baseline VALS, central subfield thickness, eye (left vs right), age, sex, race and type 2 diabetes duration.
(§6) Secondary outcomes included the change in central subfield thickness, the percentage of eyes with an improvement in VALS of 15 or more, the correlation between improvements in visual acuity and central subfield thickness, and systemic and ocular adverse events. Change in central subfield thickness was estimated using mixed-effects models, similar to the VALS analysis. To analyze a VALS improvement of at least 15 letters, logistic regression using generalized estimating equations (GEEs) was specified with an exchangeable correlation matrix. Model-based contrasts were estimated to make pairwise treatment comparisons.

[3] = test system: participants with diabetic macular edema; experiment: Retinal central subfield thickness by spectral-domain OCT, including synthetic controls from DRCR.net Protocol T; type: in vivo, human; details: for IPTW mixed-effect model: change in central subfield thickness, Treatment × week [8] estimate / Mixed-effect model: change in central subfield thickness, Treatment × week [8] estimate: interaction term; for IPTW mixed-effect model: change in central subfield thickness from baseline, treatment estimate (ref = Placebo) / Mixed-effect model: change in central subfield thickness from baseline, treatment estimate (ref = Placebo): main effect (week 4); for Mixed-effect model: change in central subfield thickness, Treatment × week [8] estimate / Mixed-effect model: change in central subfield thickness from baseline, treatment estimate (ref = Placebo): unweighted model
Method: as §4, §5, §6
In all consultations, patients underwent tomography with the Spectralis device (Heidelberg) under mydriasis. The acquisition protocol was the 6×6 mm region centered on the fovea. Data analysis from SD-OCT was restricted to the central field (1 mm in diameter) Intravitreous Injection of Anti-VEGF

[4] = test system: participants with diabetic macular edema; details: week 8, included DRCR.net Protocol T patients (synthetic controls); cited from earlier work
[5] = test system: participants with diabetic macular edema; details: week 8, synthetic controls of DRCR.net Protocol T; cited from earlier work
[6] = day 3 RRD, equimolar IP doses twice daily (K-9H 60 mg/kg, 3TC 50 mg/kg)
[7] = three days after inducing RRD, IP treatment
[8] = IPTW model with synthetic controls
[9] = Original (unweighted) model with synthetic controls

Row | Substance | degree of suppression of caspase-1 activation (caspase-1; [6]) [%+1%] | retinal cleaved caspase-1 compared with PBS-treated mice (caspase-1; [7]) | degree of photoreceptor protection [1, 6] [%+7%] | number of TUNEL+ cells in the ONL of the retina compared with PBS-treatment [1, 7] | GEE model: odds ratio of change in VALS from baseline ≥15 (ref = Placebo) ([2]; IPTW model) | Mixed effect model: change from baseline visual acuity, treatment estimate (ref: Placebo) [2, 8] | Mixed effect model: change from baseline visual acuity, treatment estimate (ref: Placebo) ([2]; IPTW model with synthetic controls, listed as aflibercept) | Mixed effect model: change from baseline visual acuity, treatment estimate (ref: Placebo) [2, 9] | GEE model: odds ratio of change in VALS from baseline ≥15 (ref = Placebo) ([2]; Original model) | IPTW mixed-effect model: change in central subfield thickness, Treatment × week [8] estimate [3] [μm] | IPTW mixed-effect model: change in central subfield thickness from baseline, treatment estimate (ref = Placebo) [3] [μm] | Mixed-effect model: change in central subfield thickness, Treatment × week [8] estimate [3] [μm] | Mixed-effect model: change in central subfield thickness from baseline, treatment estimate (ref = Placebo) [3] [μm] | percentage of eyes with improvement in VALS of 15 or more [4] [%] | percentage of eyes with VALS improvement of 15 or more that had minimal change in central subfield thickness (≤50 μm) [5] [%] | Mixed effect model: change from baseline visual acuity, treatment estimate (ref: Placebo) ([2]; IPTW model with synthetic controls, listed as bevacizumab) | Mixed effect model: change from baseline visual acuity, treatment estimate (ref: Placebo) ([2]; IPTW model with synthetic controls, listed as ranibizumab)
1 | 3-methyl-3TC [K-9] | 84 | dose-dependent and complete reduction; also recorded: inhibits RRD-induced caspase-1 cleavage | 56 | dose-dependent reduction; also recorded: protects photoreceptors | – | – | – | – | – | – | – | – | – | – | – | – | –
2 | Aflibercept: inhibitor of vascular endothelial growth factor (VEGF), intravitreous | – | – | – | – | 19.39 | 8.42 | 8.4 | 8.48 | 11.15 | 68.54 | −104.33 | 74.83 | −114.55 | 38 | 42 | – | –
3 | Bevacizumab: inhibitor of vascular endothelial growth factor (VEGF), intravitreous | – | – | – | – | 10.33 | 5.32 | – | 5.36 | 6.15 | 74.82 | −66.35 | 84.87 | −75.55 | 24 | 29 | 5.3 | –
4 | Ranibizumab: inhibitor of vascular endothelial growth factor (VEGF), intravitreous | – | – | – | – | 19.96 | 7.12 | – | 7.04 | 11.14 | 75 | −113.67 | 85.69 | −122.12 | 34 | 41 | – | 7.1
